“Also recorded” adds a separate entry of the source.
What was measured:
[1] = tested on: bone marrow-derived MSCs (lack matriptase expression); assay: Tolerance of bone marrow-derived mesenchymal stromal cells (cell count); format: cell-based, human; settings: 5 nM, 4 days
Procedure: Cell numbers were determined by Vi-Cell counter.
Human bone marrow-derived MSCs, which lack matriptase expression, were used as a control to determine the cytotoxic selectivity of M24-DOX as shown in FIG. 4 where bone marrow-derived mesenchymal stromal cells (5×10^4/well, 24-well plates) were treated with M24-DOX or free DOX at varying concentrations for 4 days. Cell numbers were determined by Vi-Cell counter.

[2] = tested on: breast tumors (MDA-MB468); assay: Human breast xenograft tumor model, M69-DOX; format: in vivo, NOD/SCID mice; settings: 2 mg/kg
Procedure: FIG. 8 illustrates the M69-DOX conjugate targeting active matriptase inhibited breast tumor growth in vivo, comparing treatment by M69-DOX at 10 mg/Kg and 20 mg/Kg doses with treatment by DOX at 2 mg/Kg dose and the control.
FIG. 9 illustrates reduction of the tumor weight by M69-DOX at 10 mg/Kg and 20 mg/Kg doses in comparison with treatment by DOX at 2 mg/Kg dose and the control.
To assess the efficacy of M69-DOX to suppress tumor growth in vivo, a human breast xenograft tumor model was used. NOD/SCID mice bearing breast tumors (MDA-MB468) were treated twice weekly with M69-DOX at either 20 or 10 mg/kg, as well as treated with DOX at 2 mg/kg. […] As a single mAb was attached with 7 molecules of DOX, a dose at 10 mg/kg of M69-DOX is equivalent to […] of DOX administered.
Reduced Weights of Tumor Masses in Mice Treated with M69-DOX. At the end of the treatment course, the tumor masses were collected from the experimental mice, and were weighed. The average weights of tumors from the groups treated with M69-DOX at either dose as well as treated with DOX were reduced to about 50% of the one from the untreated control group (FIG. 9). Significant reduction in tumor weights by M69-DOX further confirms the efficacy of site-directed delivery of DOX to tumor cells expressing activated matriptase.

[3] = tested on: MM cells; assay: MM cell proliferation, DOX-conjugates alone and combined with thalidomide; format: cell-based; settings: thalidomide alone
From the text: FIGS. 6A and B illustrate that thalidomide sensitizes MM cells to M69-DOX, but not M24-DOX: (A) comparison of treatment of MM cells by M69-DOX alone with the M69-DOX/thalidomide combination treatment; and (B) comparison of treatment of MM cells by M24-DOX alone with the M24-DOX/thalidomide combination treatment.
Thalidomide is a therapeutic for multiple myeloma treatment, and the combination of thalidomide and dexamethasone is one of the most common regimens for treatment of patients with multiple myeloma, with an response rate of up to 60-70% (Denz, U., Eur. J. Cancer., 2006, 42:1591-1600; Gieseler, F., et al., Thromb. Haemost., 2008, 99: 1001-1007). The efficacy of both DOX-conjugates in combination with current MM therapeutics such as thalidomide was tested.

[4] = tested on: matriptase; assay: Matriptase activation in MM cells (Western analysis with mAb M69); format: cell-based, human; settings: 24-hour treatment, 50 μM
Procedure: (§1) FIG. 5 illustrates activation of matriptase in MM cells induced by thalidomide. MM cells (MM.1S) were treated with varying concentrations of thalidomide as indicated for 24 hours followed by Western analyses to detect the activation of matriptase using a specific monoclonal antibody (M69) to the active form of the enzyme. […] GAPDH served as control.
as §1, with “7” for “5”
To examine the increase in cytotoxicity that resulted with the thalidomide and M69-DOX conjugate we measured the effect of thalidomide on expression of activated matriptase.

[5] = tested on: PC-3 prostate carcinoma; settings: PC-3 xenograft; cited from earlier work

## COc1cccc2c1C(=O)c1c(O)c3c(c(O)c1C2=O)C[C@@](O)(C(=O)CO)C[C@@H]3OC1CC(N)C(O)C(C)O1 (stereo partly drawn) [DOX, (8S,10S)-10-(4-amino-5-hydroxy-6-methyl-tetrahydro-2H-pyran-2-yloxy)-6,8,11-trihydroxy-8-(2-hydroxyacetyl)-1-methoxy-7,8,9,10-tetrahydrotetracene-5,12-dione]
[1]
  effect on MSC proliferation: significantly inhibit cell proliferation
[2]
  tumor growth: significantly abolished
[2]; end of treatment
  average weights of tumors relative to untreated control group: about 50%

## O=C1CCC(N2C(=O)c3ccccc3C2=O)C(=O)N1 (stereo not drawn) [thalidomide]
[3]
  effect on MM cell proliferation: no effect on MM cell proliferation; also recorded: little effect on the cell proliferation of MM cells
[4]
  activation of matriptase in MM cells: markedly enhanced

## ecotin: matriptase inhibitor
[5]
  tumor growth and metastasis formation: Reduced tumor growth and metastasis formation

— patent US11752215B2, “Targeting tumor cells with chemotherapeutic agents conjugated to anti-matriptase antibodies by in vivo cleavable linking moieties” (priority 2016, dated 2023)
